Results taken from ChEMBL document CHEMBL3991601, “The target landscape of clinical kinase drugs” (Science, 2017).
Active and inactive are the calls of the source. On the calls: in the data inactive means no Kd found up to 30 µM.

What was measured:
[1] = biological target: T1, Eukaryotic translation initiation factor 5B (Homo sapiens, UniProt O60841)
T1 sequence (O60841 whole entry): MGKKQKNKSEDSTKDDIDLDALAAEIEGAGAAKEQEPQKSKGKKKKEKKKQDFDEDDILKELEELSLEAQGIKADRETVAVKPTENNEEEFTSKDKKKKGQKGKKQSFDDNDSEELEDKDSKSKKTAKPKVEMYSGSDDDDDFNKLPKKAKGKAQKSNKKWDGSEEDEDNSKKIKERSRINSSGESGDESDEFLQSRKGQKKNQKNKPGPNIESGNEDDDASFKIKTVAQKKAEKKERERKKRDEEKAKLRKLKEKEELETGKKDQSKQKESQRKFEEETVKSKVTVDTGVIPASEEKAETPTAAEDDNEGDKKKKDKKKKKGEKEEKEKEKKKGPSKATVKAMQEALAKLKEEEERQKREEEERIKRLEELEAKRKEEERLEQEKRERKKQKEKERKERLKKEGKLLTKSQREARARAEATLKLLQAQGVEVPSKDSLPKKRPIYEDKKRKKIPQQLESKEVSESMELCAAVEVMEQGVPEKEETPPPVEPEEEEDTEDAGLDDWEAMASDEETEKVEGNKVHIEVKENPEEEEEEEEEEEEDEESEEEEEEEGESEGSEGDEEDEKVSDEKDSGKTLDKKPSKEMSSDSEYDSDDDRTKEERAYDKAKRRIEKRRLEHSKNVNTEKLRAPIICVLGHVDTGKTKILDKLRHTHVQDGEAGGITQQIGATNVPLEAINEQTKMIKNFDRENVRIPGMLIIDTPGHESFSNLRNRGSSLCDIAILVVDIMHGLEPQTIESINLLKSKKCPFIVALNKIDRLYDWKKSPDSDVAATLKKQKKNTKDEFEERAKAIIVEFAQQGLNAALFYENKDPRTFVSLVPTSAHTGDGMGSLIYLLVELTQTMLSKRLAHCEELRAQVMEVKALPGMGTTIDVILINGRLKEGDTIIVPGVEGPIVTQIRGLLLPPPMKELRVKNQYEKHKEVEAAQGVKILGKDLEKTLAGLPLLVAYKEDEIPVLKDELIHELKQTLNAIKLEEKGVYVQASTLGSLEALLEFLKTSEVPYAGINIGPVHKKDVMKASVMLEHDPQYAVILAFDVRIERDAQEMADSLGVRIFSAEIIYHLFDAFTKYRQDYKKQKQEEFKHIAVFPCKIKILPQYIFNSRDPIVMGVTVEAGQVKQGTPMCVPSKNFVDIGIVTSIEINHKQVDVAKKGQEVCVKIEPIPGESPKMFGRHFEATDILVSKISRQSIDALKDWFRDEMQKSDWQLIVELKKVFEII

[2] = biological target: Phosphatidylethanolamine-binding protein 1 (Homo sapiens, UniProt P30086)
[3] = biological target: Dual specificity testis-specific protein kinase 2 (Homo sapiens, UniProt Q96S53)
[4] = biological target: T2, Cyclin-dependent kinase-like 5 (Homo sapiens, UniProt O76039)
T2 sequence (O76039 whole entry): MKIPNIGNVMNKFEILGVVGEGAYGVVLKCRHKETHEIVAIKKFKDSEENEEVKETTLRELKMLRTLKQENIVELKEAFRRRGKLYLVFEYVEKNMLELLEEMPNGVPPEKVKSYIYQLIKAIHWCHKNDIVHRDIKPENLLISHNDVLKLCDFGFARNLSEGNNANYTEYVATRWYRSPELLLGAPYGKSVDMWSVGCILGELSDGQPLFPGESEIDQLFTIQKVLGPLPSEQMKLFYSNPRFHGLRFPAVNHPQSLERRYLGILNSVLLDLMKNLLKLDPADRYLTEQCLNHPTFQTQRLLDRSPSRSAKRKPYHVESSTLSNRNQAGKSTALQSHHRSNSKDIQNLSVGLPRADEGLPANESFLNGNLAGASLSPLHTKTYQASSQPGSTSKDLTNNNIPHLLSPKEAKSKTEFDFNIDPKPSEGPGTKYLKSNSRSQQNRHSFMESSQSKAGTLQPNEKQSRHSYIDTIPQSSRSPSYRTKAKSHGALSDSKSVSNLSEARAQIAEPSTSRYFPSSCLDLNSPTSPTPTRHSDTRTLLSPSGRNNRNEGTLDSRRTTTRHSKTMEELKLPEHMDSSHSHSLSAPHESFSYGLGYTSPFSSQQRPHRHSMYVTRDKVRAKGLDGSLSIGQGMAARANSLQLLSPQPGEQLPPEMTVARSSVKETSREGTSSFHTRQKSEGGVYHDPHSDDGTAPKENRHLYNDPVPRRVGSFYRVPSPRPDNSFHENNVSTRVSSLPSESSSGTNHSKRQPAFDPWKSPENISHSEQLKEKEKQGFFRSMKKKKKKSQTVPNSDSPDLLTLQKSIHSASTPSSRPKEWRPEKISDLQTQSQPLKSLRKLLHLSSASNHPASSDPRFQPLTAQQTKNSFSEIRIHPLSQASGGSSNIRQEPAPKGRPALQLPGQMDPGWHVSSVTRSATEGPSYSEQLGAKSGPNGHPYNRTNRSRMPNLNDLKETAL

[5] = biological target: Uncharacterized aarF domain-containing protein kinase 5 (Homo sapiens, UniProt Q3MIX3)
[6] = biological target: PAS domain-containing serine/threonine-protein kinase (Homo sapiens, UniProt Q96RG2)
Chain of PAS domain-containing serine/threonine-protein kinase (Q96RG2 whole entry, the tested form may be a part): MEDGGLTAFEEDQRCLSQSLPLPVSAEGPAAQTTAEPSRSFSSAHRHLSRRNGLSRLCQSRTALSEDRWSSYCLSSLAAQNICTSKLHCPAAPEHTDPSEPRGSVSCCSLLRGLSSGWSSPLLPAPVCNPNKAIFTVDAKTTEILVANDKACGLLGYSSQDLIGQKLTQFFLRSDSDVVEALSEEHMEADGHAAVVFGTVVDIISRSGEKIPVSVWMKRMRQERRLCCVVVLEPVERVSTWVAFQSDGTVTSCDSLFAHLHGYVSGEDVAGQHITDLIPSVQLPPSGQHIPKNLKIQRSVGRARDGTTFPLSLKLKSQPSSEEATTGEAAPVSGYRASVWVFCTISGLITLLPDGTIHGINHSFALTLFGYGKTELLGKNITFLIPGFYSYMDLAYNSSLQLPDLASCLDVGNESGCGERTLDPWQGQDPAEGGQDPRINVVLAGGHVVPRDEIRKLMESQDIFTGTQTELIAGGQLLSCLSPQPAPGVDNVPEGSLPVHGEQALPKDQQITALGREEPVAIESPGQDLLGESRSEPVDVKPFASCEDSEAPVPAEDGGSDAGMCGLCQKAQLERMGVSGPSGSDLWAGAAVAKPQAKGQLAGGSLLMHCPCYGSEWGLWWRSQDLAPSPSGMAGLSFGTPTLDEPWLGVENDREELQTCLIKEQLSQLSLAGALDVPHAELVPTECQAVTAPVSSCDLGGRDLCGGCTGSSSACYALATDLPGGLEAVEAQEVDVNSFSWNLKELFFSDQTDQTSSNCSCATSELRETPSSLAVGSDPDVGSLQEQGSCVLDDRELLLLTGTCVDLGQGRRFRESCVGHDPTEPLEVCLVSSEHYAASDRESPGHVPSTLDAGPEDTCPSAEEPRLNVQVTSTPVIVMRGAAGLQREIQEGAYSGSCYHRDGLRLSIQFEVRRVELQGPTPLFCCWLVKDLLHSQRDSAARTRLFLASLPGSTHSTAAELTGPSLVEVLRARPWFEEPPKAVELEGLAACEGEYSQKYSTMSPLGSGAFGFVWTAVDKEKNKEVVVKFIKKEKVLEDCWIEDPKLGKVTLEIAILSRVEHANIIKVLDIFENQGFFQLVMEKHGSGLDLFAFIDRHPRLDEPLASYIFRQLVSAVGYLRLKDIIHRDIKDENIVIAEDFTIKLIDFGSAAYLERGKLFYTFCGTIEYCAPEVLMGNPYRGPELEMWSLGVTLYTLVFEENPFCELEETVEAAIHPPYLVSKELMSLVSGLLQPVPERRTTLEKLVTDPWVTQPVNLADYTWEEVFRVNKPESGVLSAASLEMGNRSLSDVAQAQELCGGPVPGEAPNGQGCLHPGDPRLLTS

Chain of Uncharacterized aarF domain-containing protein kinase 5 (Q3MIX3 whole entry, the tested form may be a part): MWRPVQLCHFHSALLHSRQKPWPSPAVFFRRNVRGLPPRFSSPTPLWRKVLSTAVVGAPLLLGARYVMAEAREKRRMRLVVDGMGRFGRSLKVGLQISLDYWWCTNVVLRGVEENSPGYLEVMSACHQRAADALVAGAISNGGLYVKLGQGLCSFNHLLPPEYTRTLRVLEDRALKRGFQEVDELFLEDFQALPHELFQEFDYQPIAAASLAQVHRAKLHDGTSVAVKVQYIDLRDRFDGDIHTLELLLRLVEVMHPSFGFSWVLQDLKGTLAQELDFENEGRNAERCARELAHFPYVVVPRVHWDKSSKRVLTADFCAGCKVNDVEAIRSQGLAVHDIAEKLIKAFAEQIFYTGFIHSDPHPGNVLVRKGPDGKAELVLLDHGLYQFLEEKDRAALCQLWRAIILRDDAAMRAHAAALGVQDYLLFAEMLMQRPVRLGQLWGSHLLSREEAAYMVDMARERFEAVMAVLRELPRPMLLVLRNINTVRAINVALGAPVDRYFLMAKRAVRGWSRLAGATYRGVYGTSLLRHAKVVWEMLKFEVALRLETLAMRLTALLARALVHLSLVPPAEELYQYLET
Chain of Dual specificity testis-specific protein kinase 2 (Q96S53 whole entry): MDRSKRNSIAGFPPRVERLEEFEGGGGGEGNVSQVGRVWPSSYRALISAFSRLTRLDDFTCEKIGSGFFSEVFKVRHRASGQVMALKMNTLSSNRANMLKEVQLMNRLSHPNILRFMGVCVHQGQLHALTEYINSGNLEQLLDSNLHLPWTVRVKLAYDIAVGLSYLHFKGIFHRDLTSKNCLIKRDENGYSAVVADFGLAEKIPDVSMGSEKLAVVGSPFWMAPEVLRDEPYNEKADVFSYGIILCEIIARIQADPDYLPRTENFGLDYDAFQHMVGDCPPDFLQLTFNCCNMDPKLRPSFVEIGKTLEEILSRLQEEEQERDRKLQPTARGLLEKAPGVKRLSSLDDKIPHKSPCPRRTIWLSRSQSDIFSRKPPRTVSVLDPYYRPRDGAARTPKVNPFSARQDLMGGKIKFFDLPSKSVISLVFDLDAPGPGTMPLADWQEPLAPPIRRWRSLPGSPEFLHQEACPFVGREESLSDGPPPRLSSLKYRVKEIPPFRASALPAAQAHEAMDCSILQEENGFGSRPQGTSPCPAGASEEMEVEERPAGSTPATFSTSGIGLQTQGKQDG
Chain of Phosphatidylethanolamine-binding protein 1 (P30086 whole entry): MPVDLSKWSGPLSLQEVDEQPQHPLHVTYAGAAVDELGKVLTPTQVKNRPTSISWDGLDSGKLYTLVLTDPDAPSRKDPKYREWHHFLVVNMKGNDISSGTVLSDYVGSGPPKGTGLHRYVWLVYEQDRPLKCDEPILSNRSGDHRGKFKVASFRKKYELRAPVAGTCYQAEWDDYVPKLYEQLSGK

Cn1cc(-c2ccc3nnc(C(F)(F)c4ccc5ncccc5c4)n3n2)cn1 [JNJ-38877605]
Kd [1]: > 30 µM (inactive)
Kd [2]: > 30 µM (inactive)
Kd [3]: > 30 µM (inactive)
Kd [4]: > 30 µM (inactive)
Kd [5]: > 30 µM (inactive)
Kd [6]: > 30 µM (inactive)

CN(C)C(=O)c1cc2cnc(Nc3ccc(N4CCNCC4)cn3)nc2n1C1CCCC1 [RIBOCICLIB]
Kd [1]: > 30 µM (inactive)
Kd [2]: > 30 µM (inactive)
Kd [3]: > 30 µM (inactive)
Kd [4]: > 30 µM (inactive)
Kd [5]: > 30 µM (inactive)
Kd [6]: > 30 µM (inactive)

CCc1cnn2c(NCc3ccc[n+]([O-])c3)cc(N3CCCC[C@H]3CCO)nc12 [DINACICLIB]
Kd [1]: > 30 µM (inactive)
Kd [2]: > 30 µM (inactive)
Kd [3]: > 30 µM (inactive)
Kd [4]: > 30 µM (inactive)
Kd [5]: > 30 µM (inactive)
Kd [6]: > 30 µM (inactive)

COc1cc2nccc(Oc3ccc(NC(=O)Nc4cc(C)on4)c(Cl)c3)c2cc1OC [TIVOZANIB]
Kd [1]: > 30 µM (inactive)
Kd [2]: 0.003 µM
Kd [3]: > 30 µM (inactive)
Kd [4]: > 30 µM (inactive)
Kd [5]: > 30 µM (inactive)
Kd [6]: > 30 µM (inactive)

CNC(=O)CN1CCC(Oc2cc3c(Nc4cccc(Cl)c4F)ncnc3cc2OC)CC1 [SAPITINIB]
Kd [1]: > 30 µM (inactive)
Kd [3]: > 30 µM (inactive)
Kd [4]: > 30 µM (inactive)
Kd [5]: > 30 µM (inactive)
Kd [6]: > 30 µM (inactive)

COC(=O)[C@@]1(O)C[C@H]2O[C@]1(C)n1c3ccccc3c3c4c(c5c6ccccc6n2c5c31)C(=O)NC4 [K-252A]
Kd [1]: > 30 µM (inactive)
Kd [3]: > 30 µM (inactive)
Kd [4]: > 30 µM (inactive)
Kd [5]: > 30 µM (inactive)

COc1cc(N2CCC(N3CCN(C)CC3)CC2)ccc1Nc1ncnc(Nc2ccccc2S(=O)(=O)C(C)C)n1 [ASP-3026]
Kd [1]: > 30 µM (inactive)
Kd [2]: > 30 µM (inactive)
Kd [4]: > 30 µM (inactive)
Kd [5]: > 30 µM (inactive)

CNC(=O)c1ccc(-c2cnc3ncc(Cc4ccc5ncccc5c4)n3n2)cc1F [CAPMATINIB]
Kd [2]: > 30 µM (inactive)
Kd [4]: 2.04 µM
Kd [5]: > 30 µM (inactive)

Cc1cc2c(F)c(Oc3ncnn4cc(OC[C@@H](C)OC(=O)[C@H](C)N)c(C)c34)ccc2[nH]1 [BRIVANIB ALANINATE]
Kd [2]: > 30 µM (inactive)
Kd [3]: > 30 µM (inactive)
Kd [4]: > 30 µM (inactive)
Kd [5]: > 30 µM (inactive)
Kd [6]: > 30 µM (inactive)

COc1cc(OC)c(/C=C/S(=O)(=O)Cc2ccc(OC)c(NCC(=O)O)c2)c(OC)c1 [RIGOSERTIB]
Kd [1]: > 30 µM (inactive)
Kd [3]: > 30 µM (inactive)
Kd [4]: > 30 µM (inactive)
Kd [5]: > 30 µM (inactive)
Kd [6]: > 30 µM (inactive)

Cn1cc(-c2ccc(F)c(C(F)(F)F)c2)nc1C1CCN(c2ncnc3[nH]ncc23)CC1 [LY-2584702]
Kd [1]: > 30 µM (inactive)
Kd [2]: > 30 µM (inactive)
Kd [3]: > 30 µM (inactive)
Kd [4]: > 30 µM (inactive)

CC[C@H](Nc1ncnc2[nH]cnc12)c1nc2cccc(F)c2c(=O)n1-c1ccccc1 [IDELALISIB]
Kd [1]: > 30 µM (inactive)
Kd [2]: > 30 µM (inactive)
Kd [3]: > 30 µM (inactive)
Kd [4]: > 30 µM (inactive)
Kd [5]: > 30 µM (inactive)
Kd [6]: > 30 µM (inactive)

O=C1NC(=O)/C(=C/c2ccc3nccc(-c4ccncc4)c3c2)S1 [GSK-1059615]
Kd [3]: > 30 µM (inactive)
Kd [4]: > 30 µM (inactive)
Kd [5]: > 30 µM (inactive)
